{"source": "patent US4005194A", "about": "“Treatment of prostatic hyperplasia” (Abbott Laboratories, priority 1975, dated 1977)", "key": {"Sprague Dawley male rat": {"system": "Sprague Dawley male rat", "conditions": "in vivo", "experimental": "Ten Sprague Dawley male rat 22 days of age and weighing 45-50 grams, were randomly divided into two groups. One group received the treatment described below. After 57 days of treatment, the animals from the non-treatment control group and those from the treatment group were sacrificed. The various organs were removed, trimmed of excess tissue and weighed. Body weights were taken weekly. Group I received no treatment; Group II received 10 μg of Compound N twice each day. The results are shown in Table I with each entry showing the mean value of the respective group."}, "Male rats [1]": {"system": "Male rats", "conditions": "rat, in vivo", "experimental": "In an experiment similar to that of Example 5 with Groups I and III being treated as shown, but Group II being treated like Group III except with only 1 μg of Compound N, the test was continued for 51 days, starting with 22-day old male rats, 5 animals per group. The animals were sacrificed on day 52. […] Another three groups of 5 male rats were treated in the identical fashion, but the treatment was extended from the age of 22 days to day 138 (116 days)."}, "Male rats [2]": {"system": "Male rats", "conditions": "rat, in vivo", "remark": "listed apart in the source", "procedure": "Male rats, 22 days of age, were divided into 3 groups of five animals each. The 3 groups were treated exactly as described in Example 3, but the experiment was continued for 153 days. After 115 days, these animals were bred to untreated, cycling females (each male was caged with 2 cycling females in pro-estrus for 3 consecutive days, on 3-5 separate occasions)."}}}
{"smiles": "CCNC(=O)[C@@H]1CCCN1C(=O)[C@H](CCCNC(=N)N)NC(=O)[C@H](CC(C)C)NC(=O)[C@@H](CC(C)C)NC(=O)[C@H](Cc1ccc(O)cc1)NC(=O)[C@H](CO)NC(=O)[C@H](Cc1c[nH]c2ccccc12)NC(=O)[C@H](Cc1c[nH]cn1)NC(=O)[C@@H]1CCC(=O)N1", "note": "[Compound N]", "values": [{"measurement": "Effect on normal weight gain and growth", "setting": "Sprague Dawley male rat", "value": "essentially no effect"}, {"measurement": "Outward signs or organic changes over the control group", "setting": "Male rats [1]", "value": "None of the treated animals in this experiment showed any outward signs or organic changes"}, {"measurement": "Breeding index (percentage of successful impregnations vs. opportunities to breed)", "setting": "Male rats [2]", "value": 23, "unit": "%"}, {"measurement": "Course of resulting pregnancies", "setting": "Male rats [2]", "value": "progressed normal"}, {"measurement": "Number of pups", "setting": "Male rats [2]", "value": 10.4}, {"measurement": "Weight of pups on day 1", "setting": "Male rats [2]", "value": 6.9, "unit": "g"}, {"measurement": "Weight of pups on day 4", "setting": "Male rats [2]", "value": 11.7, "unit": "g"}, {"measurement": "Weight of pups on day 11", "setting": "Male rats [2]", "value": 23.5, "unit": "g"}, {"measurement": "Weight of pups on day 21", "setting": "Male rats [2]", "value": 44.3, "unit": "g"}]}
